The term half-life denotes how long it takes for the measured level to halve. Lower therefore signals rapid decline. As usually defined, the AUC(0-inf) is total exposure, with the tail of the curve extrapolated. Broadly, the inhibition is the change of the read-out against control, counted positive when it falls. A word on the Tmax: it is the time from dosing to the highest level.

Activity calls are given as the source filed them. No cut-off for these calls is given here.

This is an account of results in ChEMBL document CHEMBL5321281, “Synthesis and Biological Evaluation of Heterocyclic Ring-Fused 20(S)-Protopanaxadiol Derivatives as Potent Antiosteoporosis Agents” (J Med Chem, 2023).

The test system of data set [1] is BMMC. As to the kind of experiment: Anti-osteoclastogenic activity in C57/BL6 mouse BMMC cells assessed as reduction in RANKL-induced ATPase v0d2 mRNA expression level at 0.1 uM incubated for 1 to 5 days in presence of M-CSF by qRT-PCR analysis. The format is functional, cell-based. As to conditions: time 1-5 day, TDE = time-dependent effect. On the technique in general: In qPCR the cycle at which signal appears reflects the starting amount.

For data set [2], the system named is Mus musculus. Put plainly: Protective effect in ovariectomy induced osteoporosis C57BL/6 mouse model assessed as increase in bone surface/tissue volume (BS/TV) in RIO of femur at 1 to 3 mg/kg, ip and measured after 6 weeks by micro-CT analysis. It is filed as functional, organism-based. Conditions: dose 1-3 mg/kg.
Data set [3] can be described thus: Half life in ICR mouse at 10 mg/kg, po and measured upto 24 hrs by LC-MS/MS analysis. It is filed as ADME, organism-based. Conditions: in vivo.
Data set [4] can be described thus: AUC (0 to infinity) in ICR mouse at 1 mg/kg, iv and measured upto 24 hrs by LC-MS/MS analysis. It is filed as ADME, organism-based. More on the design: dose 1 mg/kg, time < 24 hrs, route iv. Conditions: in vivo.
In data set [5] the test system is BMMC. As to the kind of experiment: Cytotoxicity against C57/BL6 mouse BMMC cells assessed as reduction in cell viability at 10 uM incubated for 24 hrs by CCK-8 assay. The format is toxicity, cell-based.
A short description of data set [6]: Apparent volume of distribution in ICR mouse at 1 mg/kg, iv and measured upto 24 hrs by LC-MS/MS analysis. The format is ADME, organism-based. As to conditions: in vivo, read-out: Vz.
Data set [7] deals with BMMC. Put plainly: Anti-osteoclastogenic activity in C57/BL6 mouse BMMC cells assessed as inhibition of RANKL-induced osteoclast differentiation at 0.01 uM incubated for 5 to 7 days in presence of M-CSF by TRAP staining based microscopic analysis relative to control. It is filed as functional. Conditions: time 5-7 day.
Data set [8] is described as follows: Tmax in ICR mouse at 10 mg/kg, po and measured upto 24 hrs by LC-MS/MS analysis. It is filed as ADME, organism-based. As to conditions: in vivo.
Data set [9] can be described thus: Microsomal stability in mouse liver microsomes assessed as intrinsic clearance at 1 uM and measured upto 60 mins by LC-MS/ MS analysis. Conditions: read-out: CLH. The format is ADME, Microsome.
Data set [10] has as its system BMMC. As to the kind of experiment: Anti-osteoclastogenic activity in C57/BL6 mouse BMMC cells assessed as reduction in RANKL-induced CTSK protein expression level at 0.1 uM incubated for 1 to 3 days in presence of M-CSF by Western blot anlaysis. It is filed as functional, cell-based. Conditions: time 1-3 day. A general note: Immunoblotting shows a protein as a band on a membrane.

The subject of data set [11] is BMMC. Put plainly: Anti-osteoclastogenic activity in C57/BL6 mouse BMMC cells assessed as reduction in RANKL-induced TRAP mRNA expression level at 0.1 uM incubated for 1 to 5 days in presence of M-CSF by qRT-PCR analysis. Conditions: time 1-5 day, TDE = time-dependent effect. The format is functional, cell-based.
For data set [12], the system named is Mus musculus. Put plainly: Protective effect in ovariectomy induced osteoporosis C57BL/6 mouse model assessed as increase in trabecular separation (Tb.Sp) in RIO of femur at 1 to 3 mg/kg, ip and measured after 6 weeks by micro-CT analysis. It is filed as functional, organism-based. As to conditions: dose 1-3 mg/kg.

As to `C=C(CCC=C(C)C)[C@H]1CC[C@]2(C)[C@@H]1[C@H](O)C[C@@H]1[C@@]3(C)Cc4cnc(C)nc4C(C)(C)[C@@H]3CC[C@]12C`, the Activity entry is “Tde” in the data set with BMMC [1], “>= 100%” in the data set on BMMC [5] and “Tde” in the data set with BMMC [11]. The result in the data set on Mus musculus [2], with BMMC [10] and with Mus musculus [12] was Active. The half-life in data set [3] was 1.03 h. In [4], the AUC(0-inf) came to 1170 ng·h/mL. Besides, the Vd in data set [6] was found to be 0.413 L/kg. In addition, the inhibition at 0.01 µM in the data set on BMMC [7] came out at 44.4%. Moreover, the time to peak (Tmax) in data set [8] was 1 h. Also, in data set [9], the microsomal CLint at 1 µM came to 37.4 µL/min/mg.
